Source: patent publication US20230174485A1, “LIPOXYGENASE INHIBITORS” (SRI International, priority 2020, published 2023)
“And” between values parts separate entries of the source, which are not always exact repeats. Equal entries are not always repeated. Where two headings read alike, the source gives them in different places.

What was measured:
Assay type in all cases: biochemical
[1] = target: T1, recombinant 5-LOX (Homo sapiens, UniProt P09917); assay: 5-LOX fluorescent assay; conditions: several values in one cell = repeat determinations; read-out: IC50 (μM) values for in vitro lipoxygenase inhibition, 5-LOX
T1 sequence (P09917 1-674): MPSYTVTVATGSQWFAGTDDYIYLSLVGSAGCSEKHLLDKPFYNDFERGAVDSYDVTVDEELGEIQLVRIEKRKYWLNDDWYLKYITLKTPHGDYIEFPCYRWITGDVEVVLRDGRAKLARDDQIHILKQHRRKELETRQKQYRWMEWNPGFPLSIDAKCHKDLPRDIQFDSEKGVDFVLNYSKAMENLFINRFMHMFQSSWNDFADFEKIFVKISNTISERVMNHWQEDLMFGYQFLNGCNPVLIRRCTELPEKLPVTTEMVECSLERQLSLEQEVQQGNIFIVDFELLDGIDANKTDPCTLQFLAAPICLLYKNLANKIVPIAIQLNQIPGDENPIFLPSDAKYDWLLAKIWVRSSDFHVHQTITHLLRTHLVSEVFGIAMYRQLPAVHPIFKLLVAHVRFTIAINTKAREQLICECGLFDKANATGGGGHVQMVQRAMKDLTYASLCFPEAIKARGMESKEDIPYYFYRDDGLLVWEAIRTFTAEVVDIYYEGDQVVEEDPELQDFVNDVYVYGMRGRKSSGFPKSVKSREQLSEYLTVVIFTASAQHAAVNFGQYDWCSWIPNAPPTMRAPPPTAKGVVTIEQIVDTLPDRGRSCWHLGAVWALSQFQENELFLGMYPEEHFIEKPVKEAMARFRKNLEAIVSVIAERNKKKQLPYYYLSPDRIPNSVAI
Protocol: 5-LOX FI assay Fluorescent Assay
The enzyme assay (100 μL) contained 50 mM Tris, pH 7.5, 0.1 mM EDTA, 0.3 mM CaCl2, 20 μM AA, 100 μM ATP, 1 μM DHR123, and recombinant 5-LOX cell lysate (0.5 μL/100 μL). Inhibitors (dissolved in DMSO) were plated at 1 μL into 96-well assay microplates followed by a 40 μL addition of a solution containing 5-LOX enzyme. Enzyme was pre-incubated with compounds for 15 mins. The assay was initiated by the addition of a 40 μL substrate solution containing AA and ATP, and 20 μL addition of a solution containing DHR123. Enzymatic reaction proceeded for 30 min with kinetic reading at 500 nm excitation & 536 nm emission in SpectraMax Paradigm (MolecularDevice). Percent inhibition was calculated for each compound dose for IC50 curve fitting using 4 Parameter Logistic Model or Sigmoidal Dose-Response Model.

[2] = target: T2, recombinant 12-LOX enzyme (Homo sapiens, UniProt P18054); assay: 12-LOX fluorescent assay; conditions: several values in one cell = repeat determinations; read-out: IC50 (μM) values for in vitro lipoxygenase inhibition, 12-LOX
T2 sequence (P18054 1-663): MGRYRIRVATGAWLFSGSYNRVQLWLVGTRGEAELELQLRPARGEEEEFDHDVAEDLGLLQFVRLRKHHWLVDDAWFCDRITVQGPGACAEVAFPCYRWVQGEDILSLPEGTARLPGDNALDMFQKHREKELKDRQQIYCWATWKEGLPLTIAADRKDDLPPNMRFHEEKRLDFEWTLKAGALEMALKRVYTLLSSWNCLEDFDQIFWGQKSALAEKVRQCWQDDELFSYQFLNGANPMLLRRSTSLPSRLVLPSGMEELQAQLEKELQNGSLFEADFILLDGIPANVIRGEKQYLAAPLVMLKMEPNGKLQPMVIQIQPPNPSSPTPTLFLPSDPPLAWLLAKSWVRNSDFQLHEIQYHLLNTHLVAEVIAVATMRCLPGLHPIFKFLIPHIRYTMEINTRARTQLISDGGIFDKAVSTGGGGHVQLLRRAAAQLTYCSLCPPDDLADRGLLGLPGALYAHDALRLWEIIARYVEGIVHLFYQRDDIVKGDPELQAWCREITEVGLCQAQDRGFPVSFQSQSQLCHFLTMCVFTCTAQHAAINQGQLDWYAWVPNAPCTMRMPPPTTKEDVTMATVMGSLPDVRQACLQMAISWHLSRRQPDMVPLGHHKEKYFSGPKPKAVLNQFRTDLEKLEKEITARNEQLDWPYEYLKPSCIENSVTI
Protocol: (§1) 12-LOX/15-LOX Fluorescent Assay
(§2) The enzyme assay (100 ul) contained 50 mM Tris, pH 7.5, 0.05% Tween-20, 20 μM AA/LA, 1 μM DHR123, and 100 nM recombinant 12-LOX enzyme/50 nM recombinant 15-LOX enzyme. Inhibitors (dissolved in DMSO) were plated at 1 μL into 96-well assay microplates followed by a 40 μL addition of a solution containing 12-LOX/15-LOX enzyme. Enzyme was pre-incubated with compounds for 15 mins. The assay was initiated by the addition of a 40 μL substrate solution containing AA/LA, and 20 μL addition of a solution containing DHR123. Enzymatic reaction proceeded for 30 min with kinetic reading at 500 nm excitation & 536 nm emission in SpectraMax Paradigm (MolecularDevice). Percent inhibition was calculated for each compound dose for IC50 curve fitting using 4 Parameter Logistic Model or Sigmoidal Dose-Response Model.

[3] = target: T3, recombinant 15-LOX enzyme (Homo sapiens, UniProt P16050); assay: 15-LOX fluorescent assay; conditions: several values in one cell = repeat determinations
T3 sequence (P16050 1-662): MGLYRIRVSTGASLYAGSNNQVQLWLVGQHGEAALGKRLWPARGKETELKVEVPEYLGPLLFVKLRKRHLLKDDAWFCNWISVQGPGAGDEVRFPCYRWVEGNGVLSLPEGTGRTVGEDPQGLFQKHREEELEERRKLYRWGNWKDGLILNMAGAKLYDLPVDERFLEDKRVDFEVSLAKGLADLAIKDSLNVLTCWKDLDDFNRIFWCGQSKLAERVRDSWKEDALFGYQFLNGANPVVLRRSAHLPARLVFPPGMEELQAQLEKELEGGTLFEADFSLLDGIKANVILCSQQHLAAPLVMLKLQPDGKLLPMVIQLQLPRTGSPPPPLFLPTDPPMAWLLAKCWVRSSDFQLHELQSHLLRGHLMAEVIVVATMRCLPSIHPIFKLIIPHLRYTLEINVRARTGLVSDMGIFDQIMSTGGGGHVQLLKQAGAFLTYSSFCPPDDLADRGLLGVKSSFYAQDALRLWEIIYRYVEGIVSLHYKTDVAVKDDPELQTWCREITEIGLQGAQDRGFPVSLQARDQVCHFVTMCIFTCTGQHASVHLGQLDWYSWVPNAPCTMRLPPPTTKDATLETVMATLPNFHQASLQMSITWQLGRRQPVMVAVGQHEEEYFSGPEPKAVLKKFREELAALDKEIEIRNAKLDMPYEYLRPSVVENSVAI
Protocol: as §1, §2

[4] = read-out: IC50 (μM) values for in vitro lipoxygenase inhibition, 15-LOX
[5] = IC50 (μM) values for in vitro lipoxygenase inhibition, 15-LOX

| Compound | IC50 [1] | IC50 [2] | IC50 [3, 4] | IC50 [3, 5] |
| --- | --- | --- | --- | --- |
| Fc1ccc2[nH]c3c(OCCn4cncn4)cc(Oc4ccccc4)cc3c2c1 [SS20308-0084-01, 1-(2-(1H-1,2,4-triazol-1-yl)ethoxy)-6-fluoro-3-phenoxy-9H-carbazole] | 6.79 µM | 5.42 µM |  | 3.36 µM |
| CN(C)CCOc1c(NCc2ccccc2)ccc2c1[nH]c1ccc(F)cc12 [SS20308-0036-01, N-benzyl-1-(2-(dimethylamino)ethoxy)-6-fluoro-9H-carbazol-2-amine] | 0.35 µM | 0.4 µM | 0.8 µM |  |
| CN(C)CCCOc1cccc2c1-c1[nH]c3ccccc3c1CS2 [SS20308-0090-01, 3-(6,11-dihydrothiochromeno[4,3-b]indol-1-yloxy)-N,N-dimethylpropan-1-amine] | 0.47 µM | 0.43 µM | 0.69 µM |  |
| CN(C)CCCc1c2[nH]c3ccccc3c2cc2[nH]c3ccccc3c12 [SS20308-0104-01, 3-(5,11-dihydroindolo[3,2-b]carbazol-6-yl)-N,N-dimethylpropan-1-amine] |  |  |  | 0.02 µM |
| Fc1ccc2[nH]c3cc(-c4ccccc4)c(NCCn4cncn4)cc3c2c1 [SS20308-0094-01, N-(2-(1H-1,2,4-triazol-1-yl)ethyl)-6-fluoro-2-phenyl-9H-carbazol-3-amine] |  | 30 nM and 40 nM (3×) |  |  |
| CN(C)CCCc1c2[nH]c3ccc(F)cc3c2c(F)c2[nH]c3ccc(F)cc3c12 [SS20308-0163-01, N,N-dimethyl-3-(2,8,12-trifluoro-5,11-dihydroindolo[3,2-b]carbazol-6-yl)propan-1-amine] | 20 nM (2×) and 40 nM and 50 nM and 10 nM |  |  |  |
| CN(C)CCOc1c(O)ccc2c1[nH]c1ccc(F)cc12 [SS20308-0004-01, 1-(2-(dimethylamino)ethoxy)-6-fluoro-9H-carbazol-2-ol] |  | 3.19 µM | 2.55 µM |  |

Other lines, results leading:

| IC50 [1] | IC50 [2] | IC50 [3, 4] | IC50 [3, 5] | Compound |
| --- | --- | --- | --- | --- |
| > 100 µM | > 100 µM | > 100 µM |  | Cc1c2[nH]c3ccccc3c2cc2[nH]c3ccccc3c12 [SS20308-0112-01, 6-methyl-5,11-dihydroindolo[3,2-b]carbazole] |
| 0.13 µM and 0.06 µM | 0.03 µM and 0.02 µM | 0.28 µM and 0.1 µM |  | c1ccc2c(c1)CCc1cc(NCCn3cncn3)ccc1N2 [SS20308-0276-01, N-(2-(1H-1,2,4-triazol-1-yl)ethyl)-10,11-dihydro-5H-dibenzo[b,f]azepin-2-amine] |
| 0.66 µM | 0.22 µM | 0.49 µM |  | Fc1ccc2[nH]c3cc(C(F)(F)F)c(NCC4(Cn5cncn5)COC4)cc3c2c1 [SS20308-0295-01, N-((3-((1H-1,2,4-triazol-1-yl)methyl)oxetan-3-yl)methyl)-6-fluoro-2-(trifluoromethyl)-9H-carbazol-3-amine] |
|  | 0.05 µM and 0.11 µM |  | 0.02 µM and 0.04 µM | CN(C)CCOc1c2[nH]c3ccccc3c2c(F)c2[nH]c3ccccc3c12 [SS20308-0102-01, 2-(12-fluoro-5,11-dihydroindolo[3,2-b]carbazol-6-yloxy)-N,N-dimethylethanamine] |
|  | 0.09 µM and 0.04 µM and 0.14 µM | 0.12 µM and 0.08 µM and 0.17 µM |  | CC(C)CCOc1cc2c3ccccc3[nH]c2c2[nH]c3ccccc3c12 [SS20308-0127-01, 5-(isopentyloxy)-11,12-dihydroindolo[2,3-a]carbazole] |
|  | 0.05 µM and 0.08 µM | 0.08 µM and 0.2 µM |  | c1ccc(-c2cc3c(cc2NCCn2cncn2)Nc2ccccc2CC3)cc1 [SS20308-0152-01, N-(2-(1H-1,2,4-triazol-1-yl)ethyl)-2-phenyl-10,11-dihydro-5H-dibenzo[b,f]azepin-3-amine] |
| 33 µM and > 1 µM |  |  |  | c1ccc(CN(CCCn2cncn2)c2ccc3[nH]c4ccccc4c3c2)cc1 [SS20308-0097-01, N-(3-(1H-1,2,4-triazol-1-yl)propyl)-N-benzyl-9H-carbazol-3-amine] |
| 0.55 µM and 0.26 µM and 0.35 µM |  |  | 1 µM and 0.41 µM and 0.86 µM | c1ccc(N(CCn2cncn2)c2ccc3[nH]c4ccccc4c3c2)cc1 [SS20308-0108-01, N-(2-(1H-1,2,4-triazol-1-yl)ethyl)-N-phenyl-9H-carbazol-3-amine] |
| 0.01 µM and 0.04 µM |  |  |  | CN(C)CCc1cc(Nc2ccc(Cl)cc2)cc2c1[nH]c1ccccc12 [SS20308-0257-01, N-(4-chlorophenyl)-1-(2-(dimethylamino)ethyl)-9H-carbazol-3-amine] |
